# Assay results: ChEMBL document CHEMBL1201862, “PubChem BioAssay data set” (2004)
#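 In this assay, cells in 96-well plates receive the compound at five concentrations for 48 hours. Endpoints are linearly interpolated between the surrounding concentrations. At the GI50, growth is halved.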 Active and inactive are the calls of the source. Rule as the data show it: active = GI50 up to about 1.1 µM and inactive = higher.
# Assays:
# Experiment in all cases: growth of human tumour cells (NCI), 48 h
# EKVX = tested on: EKVX
# OVCAR-3 = tested on: OVCAR-3
# NCI-H460 = tested on: NCI-H460
# COLO 205 = tested on: COLO 205
# A549 = tested on: A549
# MOLT-4 = tested on: MOLT-4
# UO-31 = tested on: UO-31
# NCI-H23 = tested on: NCI-H23
# SNB-19 = tested on: SNB-19
# HL-60 = tested on: HL-60
# SW-620 = tested on: SW-620
# UACC-62 = tested on: UACC-62
# SN12C = tested on: SN12C
# CCRF-CEM = tested on: CCRF-CEM
# SK-MEL-28 = tested on: SK-MEL-28
# SF-268 = tested on: SF-268
# IGROV-1 = tested on: IGROV-1
# LOX IMVI = tested on: LOX IMVI
# U-251 = tested on: U-251
# K562 = tested on: K562
SMILES,GI50 (EKVX),GI50 (OVCAR-3),GI50 (NCI-H460),GI50 (COLO 205),GI50 (A549),GI50 (MOLT-4),GI50 (UO-31),GI50 (NCI-H23),GI50 (SNB-19),GI50 (HL-60),GI50 (SW-620),GI50 (UACC-62),GI50 (SN12C),GI50 (CCRF-CEM),GI50 (SK-MEL-28),GI50 (SF-268),GI50 (IGROV-1),GI50 (LOX IMVI),GI50 (U-251),GI50 (K562)
CCOC(=O)C(C)OC(=O)c1ccc(C)cc1 (stereo unspecified),> 100 µM (inactive),> 100 µM (inactive),> 100 µM (inactive),> 100 µM (inactive),> 100 µM (inactive),> 100 µM (inactive),> 100 µM (inactive),> 100 µM (inactive),> 100 µM (inactive),> 100 µM (inactive),> 100 µM (inactive),> 100 µM (inactive),> 100 µM (inactive),> 100 µM (inactive),> 100 µM (inactive),> 100 µM (inactive),> 100 µM (inactive),> 100 µM (inactive),> 100 µM (inactive),64.1 µM (inactive)
COc1ccc2oc3c(ccc[n+]3C)c(=O)c2c1,> 100 µM (inactive),> 100 µM (inactive),> 100 µM (inactive),> 100 µM (inactive),> 100 µM (inactive),–,> 100 µM (inactive),> 100 µM (inactive),> 100 µM (inactive),> 100 µM (inactive),> 100 µM (inactive),> 100 µM (inactive),> 100 µM (inactive),> 100 µM (inactive),> 100 µM (inactive),> 100 µM (inactive),> 100 µM (inactive),> 100 µM (inactive),> 100 µM (inactive),> 100 µM (inactive)
Nc1nc(N)nc(-c2ccccc2NS(=O)(=O)c2ccc([N+](=O)[O-])cc2)n1,> 100 µM (inactive),54 µM (inactive),42.9 µM (inactive),17.9 µM (inactive),> 91.2 µM (inactive),> 54.5 µM (inactive),> 54.8 µM (inactive),37.2 µM (inactive),> 100 µM (inactive),19.3 µM (inactive),> 100 µM (inactive),> 96.6 µM (inactive),97.3 µM (inactive),27.5 µM (inactive),> 100 µM (inactive),96.8 µM (inactive),> 100 µM (inactive),38.2 µM (inactive),> 84.9 µM (inactive),> 10 µM (inactive)
O=C(Nc1ccc(I)cc1C(=O)NCCO)c1cccs1,> 100 µM (inactive),> 100 µM (inactive),85.3 µM (inactive),> 100 µM (inactive),82.8 µM (inactive),> 100 µM (inactive),> 100 µM (inactive),> 100 µM (inactive),> 100 µM (inactive),> 100 µM (inactive),> 100 µM (inactive),> 100 µM (inactive),> 100 µM (inactive),> 100 µM (inactive),> 100 µM (inactive),> 100 µM (inactive),> 100 µM (inactive),> 100 µM (inactive),> 100 µM (inactive),> 100 µM (inactive)
COc1ccc2c(=O)c(O)c(-c3ccc(OC)c(OC)c3)oc2c1,6.95 µM (inactive),2.84 µM (inactive),3.35 µM (inactive),28.9 µM (inactive),4.92 µM (inactive),3.22 µM (inactive),2.47 µM (inactive),–,15.8 µM (inactive),1.66 µM (inactive),4.97 µM (inactive),3.23 µM (inactive),–,2.36 µM (inactive),8.53 µM (inactive),4.84 µM (inactive),7.45 µM (inactive),5.58 µM (inactive),3.52 µM (inactive),4.53 µM (inactive)
COc1nc(Cl)nc(N[C@H](C)c2c3ccccc3cc3ccccc23)n1,16.1 µM (inactive),11.1 µM (inactive),17 µM (inactive),14.4 µM (inactive),27.7 µM (inactive),14.1 µM (inactive),16.9 µM (inactive),16.9 µM (inactive),16.3 µM (inactive),19.1 µM (inactive),15.2 µM (inactive),0.628 µM (active),0.879 µM (active),10.4 µM (inactive),2.3 µM (inactive),18 µM (inactive),6.75 µM (inactive),15.6 µM (inactive),16.4 µM (inactive),8.49 µM (inactive)
COC1=CC(=O)c2c(c(COC(C)=O)cn2C)C1=O,0.279 µM (active),0.158 µM (active),0.115 µM (active),0.0282 µM (active),0.207 µM (active),0.305 µM (active),0.159 µM (active),0.0715 µM (active),0.345 µM (active),0.299 µM (active),0.0249 µM (active),0.13 µM (active),0.0622 µM (active),0.234 µM (active),0.22 µM (active),0.173 µM (active),0.184 µM (active),0.0887 µM (active),0.129 µM (active),0.15 µM (active)
CC(=O)Oc1c(OC(C)=O)c(-c2ccc(O)c(O)c2)c(O)c(O)c1-c1ccc(O)cc1,> 100 µM (inactive),> 100 µM (inactive),> 100 µM (inactive),> 100 µM (inactive),> 100 µM (inactive),> 100 µM (inactive),> 100 µM (inactive),> 100 µM (inactive),> 100 µM (inactive),54.2 µM (inactive),42.7 µM (inactive),27.4 µM (inactive),> 100 µM (inactive),61 µM (inactive),> 100 µM (inactive),> 100 µM (inactive),93.1 µM (inactive),29.9 µM (inactive),> 100 µM (inactive),50.7 µM (inactive)
CCN(CC)CCCNC(=O)c1ccccc1Nc1c(Cl)cccc1Cl,11.1 µM (inactive),–,–,12.7 µM (inactive),15.7 µM (inactive),11.8 µM (inactive),6.79 µM (inactive),16.6 µM (inactive),15.6 µM (inactive),3.18 µM (inactive),13.6 µM (inactive),12 µM (inactive),14.2 µM (inactive),6.32 µM (inactive),2.94 µM (inactive),15.5 µM (inactive),17.6 µM (inactive),8.55 µM (inactive),–,6.76 µM (inactive)
O=C1CN2Cc3cc(N4CCOCC4)ccc3N=C2N1,–,30.1 µM (inactive),41.5 µM (inactive),32.1 µM (inactive),–,25 µM (inactive),33.4 µM (inactive),20.3 µM (inactive),> 100 µM (inactive),72.6 µM (inactive),47.1 µM (inactive),26.2 µM (inactive),63.5 µM (inactive),5.43 µM (inactive),> 100 µM (inactive),–,27.5 µM (inactive),> 100 µM (inactive),39.4 µM (inactive),2.91 µM (inactive)
COc1ccc2[nH]c(C(=O)N3CC(CCl)c4c3cc(N)c3ccccc43)cc2c1 (stereo unspecified),< 0.01 µM (active),0.0139 µM (active),< 0.01 µM (active),< 0.0105 µM (active),< 0.01 µM (active),< 0.01 µM (active),< 0.01 µM (active),< 0.01 µM (active),< 0.0154 µM (active),< 0.01 µM (active),< 0.01 µM (active),< 0.01 µM (active),< 0.01 µM (active),< 0.01 µM (active),0.0142 µM (active),< 0.01 µM (active),< 0.01 µM (active),< 0.01 µM (active),< 0.01 µM (active),< 0.01 µM (active)
Cc1cccc2sc(-c3ccc(O)cc3)nc12,0.579 µM (active),16.1 µM (inactive),18.1 µM (inactive),14.9 µM (inactive),12.8 µM (inactive),43.7 µM (inactive),13.6 µM (inactive),16.5 µM (inactive),17.8 µM (inactive),15.9 µM (inactive),11.5 µM (inactive),16 µM (inactive),18.2 µM (inactive),16.9 µM (inactive),18.5 µM (inactive),16.6 µM (inactive),13.7 µM (inactive),18.4 µM (inactive),19.3 µM (inactive),33.3 µM (inactive)
O=C(O)CC/C(=N\Nc1nsc2ccccc12)c1ccccc1,> 100 µM (inactive),26.5 µM (inactive),33.6 µM (inactive),> 100 µM (inactive),> 100 µM (inactive),23.4 µM (inactive),> 100 µM (inactive),27.2 µM (inactive),> 100 µM (inactive),25.4 µM (inactive),52.4 µM (inactive),58.5 µM (inactive),38.1 µM (inactive),26.6 µM (inactive),34.6 µM (inactive),39.4 µM (inactive),> 100 µM (inactive),29.5 µM (inactive),39.1 µM (inactive),26.8 µM (inactive)
